The source of these data is patent US10525064B2, “Anticancer adjuvant containing panaxadiol ginsenocide compound” (priority 2015, dated 2020).

Data set [1] concerns MCF-7 cells. In words: WST-1 viability assay in siRNA-treated cells with doxorubicin or tamoxifen. The note with it: 5 μM doxorubicin or 20 μM tamoxifen, 24 hours, FIG. 6B; for change of anticancer activity where mitochondrial fission was induced by Mfn1 or Mfn2 siRNA: Mfn2 versus Mfn1 inhibition; for anticancer activity (viability of MCF-7 cells): siRNA-introduced cells. Format: cell-based, human. As to the method:
Meanwhile, each of the synthesized siRNAs was introduced into MCF-7 cells and cultured for 12 hours. The cells were cultured further for 48 hours in a normal medium containing no siRNA, treated with 5 μM doxorubicin or 20 μM tamoxifen, and cultured for 24 hours. Upon completion of culture, the viability of the MCF-7 cells was compared by WST-1 assay (FIG. 6B). In particular, an experimental group not treated with doxorubicin or tamoxifen was used as a control.
On the technique in general: Tetrazolium dyes change colour on reduction, which living cells bring about.

Data set [2] concerns MCF-7 cells. Kind of data set: WST-1 viability assay, ginsenoside pretreatment followed by doxorubicin or tamoxifen. The class given is cell-based. The note with it: for effect on anticancer activity of doxorubicin: then doxorubicin 5 μg/mL 24 hours, FIG. 2A; for anticancer activity of doxorubicin with ginsenoside compared to doxorubicin alone: ginsenoside 10 μg/mL, doxorubicin 0-50 μg/mL. As to the method: Specifically, each of the PPD-type ginsenoside compounds (F2, Rh2, C-K, or PPD) at a concentration of 10 μg/mL was added to MCF-7 cells, cultured for 12 hours, and treated with 20 μM tamoxifen or doxorubicin (5 μg/mL) and cultured for 24 hours. Upon completion of the cultivation, the viability of MCF-7 cells was compared by WST-1 assay (FIG. 2A).
In this regard, to determine whether the C-K or PPD affects the treatment concentration of doxorubicin, the PPD-type ginsenoside compound (C-K or PPD) was added to the MCF-7 cells at a concentration of 10 μg/mL and cultured for 12 hours. Then, the MCF-7 cells were treated with doxorubicin at various concentrations (0 μg/mL, 0.1 μg/mL, 0.5 μg/mL, 1 μg/mL, 2 μg/mL, 5 μg/mL, 10 μg/mL, and 50 μg/mL) and cultured for 24 hours. Upon completion of the culture, the viability of the MCF-7 cells and the LC50 values calculated therefrom were compared by WST-1 assay (FIG. 2B).

Data set [3] relates to cytochrome-C release in MCF-7 cells. In words: Cytochrome-C release from mitochondria, immunofluorescent staining. The class given is cell-based, human. The note with it: for cells in which cytochrome-C was released, of the entire cells: 6 hours after the treatment, FIG. 4B; for level of cytochrome-C release compared to doxorubicin treatment alone: then doxorubicin 5 μg/mL 4 hours. As to the method: MCF-7 cells were charged with a medium containing C-K or PPD (10 μg/mL) and cultured for 24 hours, and the medium was replaced with a medium containing doxorubicin (5 μg/mL) and cultured for 0 hours or 4 hours. The cells, upon completion of culture, were fixed with 4% paraformaldehyde, perforated by adding 0.5% Triton X-100 solution thereto, and the cells were immunostained with anti-cytochrome-C antibody for 30 minutes. Upon completion of the staining, the cells were washed with PBS, reacted with fluorescently-labeled secondary antibody for 30 minutes, washed with PBS, and then photographed using a confocal microscope to measure the levels of fluorescence developed (FIG. 4A).
In this regard, the present inventors have attempted to confirm whether the level of cytochrome-C release can be changed by the treatment time of doxorubicin. That is, the immunostaining was performed in the same manner as described above, except that MCF-7 cells were charged with a medium containing C-K or PPD (10 μg/mL) and cultured for 24 hours, and the medium was replaced with a medium containing doxorubicin (5 μg/mL), and the cells which were cultured for 0 hours, 0.5 hours, 1 hour, 2 hours, 4 hours, or 6 hours were used. Then, the number of cells in which cytochrome-C was released from mitochondria to cytoplasm was measured (FIG. 4B). In particular, an experimental group not treated with ginsenoside was used as a control.

Data set [4] relates to phosphorylated JNK, cleaved-PARP, cleaved-caspase-9 in MCF-7 cells. Kind of data set: Western blot of apoptosis-related proteins. The class given is cell-based, human. The note with it: for level of cleaved-caspase-9 / levels of phosphorylated JNK and cleaved-PARP: ginsenoside 10 μg/mL with doxorubicin 5 μg/mL. As to the method: MCF-7 cells were charged with a medium containing C-K or PPD (10 μg/mL) and cultured for 12 hours, and the medium was replaced with a medium containing C-K or PPD (10 μg/mL) and doxorubicin (0 μg/mL or 5 μg/mL) and cultured for 24 hours. The cells, upon completion of culture, were disrupted and western blot analyses were performed treated with respect to anti-phosphorylated JNK antibody, anti-PARP antibody, anti-cleaved-PARP antibody, and anti-caspase-9 antibody or anti-cleaved-caspase-9 antibody (FIG. 3A).
Accordingly, MCF-7 cells were charged with a medium containing PPD (10 μg/mL) and cultured for 12 hours, and the medium was replaced with a medium containing PPD (10 μg/mL) and doxorubicin (5 μg/mL) and cultured for 0 hours, 0.5 hours, 1 hour, 2 hours, 4 hours, or 6 hours. The same western blot analysis was performed using the cultured cells (FIG. 3B). In particular, as a comparative group, cells cultured in a medium containing doxorubicin alone were used instead of the medium containing PPD and doxorubicin.
On the technique in general: Immunoblotting shows a protein as a band on a membrane.

For data set [5], the system named is MCF-7 cells. Kind of data set: Anticancer activity with PARP inhibitor or caspase-9 inhibitor pretreatment. Format: cell-based, human. The note with it: FIG. 3C; for anticancer activity with PARP activity inhibitor, ginsenoside and doxorubicin treated simultaneously: 3-AB pretreatment, ginsenoside 10 μg/mL, doxorubicin 5 μg/mL. As to the method: Specifically, a medium containing C-K or PPD (10 μg/mL) was added to MCF-7 cells pretreated with Z-LEHD-FMK (i.e., an inhibitor of caspase-9) or 3-AB (i.e., an inhibitor of PARP) and cultured for 12 hours. The medium was then replaced with a medium containing doxorubicin (0 μg/mL or 5 μg/mL) and cultured for 24 hours. The same western blot analysis was performed using the cultured cells (FIG. 3C).

Data set [6] relates to MCF-7 cells. Kind of data set: WST-1 viability assay, PPD-type ginsenoside compounds alone. The note with it: 0-200 μg/mL, 24 hours, FIG. 1. Format: cell-based, human. As to the method:
First, MCF-7 cells, a human breast cancer cell line, were inoculated into DMEM medium containing 10% FBS and 1% penicillin/streptomycin, cultured in conditions of 5% CO2 and 37° C. When the cultured MCF-7 cells were saturated the cells were sub-cultured at intervals of 3 days to 5 days.
Then, the cultured MCF-7 cells were treated with various concentrations (0 μg/mL, 5 μg/mL, 10 μg/mL, 20 μg/mL, 50 μg/mL, 100 μg/mL, or 200 μg/mL) of PPD-type ginsenoside compounds (F2, Rh2, C-K, or PPD) for 24 hours, and the viability of these cells was measured by performing WST-1 assay on the MCF-7 cells (FIG. 1). In particular, WST-1 assay was performed by inoculating each of the MCF-7 cells in a medium containing 10% EZ-Cytox and reacting at 37° C. for 1.5 hours. The level of water-soluble formazan dye produced by the viable cells was measured by absorbance at 450 nm and the results were analyzed to calculate the cell viability of the cells.

Data set [7] relates to mitochondria of MCF-7 cells. In words: Mitochondria immunostaining with anti-Tom-20 antibody. The note with it: ginsenoside 10 μg/mL, 24 hours, FIG. 5A. The class given is cell-based, human. As to the method: That is, MCF-7 cells were charged with a medium containing C-K or PPD (10 μg/mL) and cultured for 24 hours. The cells, upon completion of culture, were fixed with 4% paraformaldehyde, perforated by adding 0.5% Triton X-100 solution thereto, and mitochondria of the cells were immunostained with anti-Tom-20 antibody. Upon completion of staining, the cells were washed with PBS and then photographed using a confocal microscope to measure the levels of fluorescence developed (FIG. 5A).

For data set [8], the system named is Drp1, Fis1, OPA-3, Mfn1, Mfn2, OPA1 in MCF-7 cells. In words: Western blot of mitochondrial fission and fusion proteins. The note with it: ginsenoside 10 μg/mL, 24 hours, FIG. 5B. The class given is cell-based, human. As to the method:
Accordingly, western blot analysis was performed with respect to each of the cultured cells and the expression levels of the proteins (Drp1, Fis1, and OPA-3) involved in mitochondrial fission and those of the proteins (Mfn1, Mfn2, and OPA1) involved in mitochondrial fusion were compared (FIG. 5B).

The mark [9] stands for this setting: ginsenoside 10 μg/mL 24 hours, FIG. 4A.
Where [10] appears, read: ginsenoside 10 μg/mL 24 hours, then doxorubicin 5 μg/mL.

In brackets after ≈: the same amount, converted by molar mass.

With `CC/C(=C(\c1ccccc1)c1ccc(OCCN(C)C)cc1)c1ccccc1` [tamoxifen], in data set [1], the “change of anticancer activity where mitochondrial fission was induced by Mfn1 or Mfn2 siRNA” value is “no difference in anticancer activity” and the “anticancer activity (viability of MCF-7 cells)” value is “showed anticancer activity”.

`CC(C)=CCC[C@](C)(O[C@@H]1O[C@H](CO)[C@@H](O)[C@H](O)[C@H]1O)[C@H]1CC[C@]2(C)[C@@H]1[C@H](O)C[C@@H]1[C@@]3(C)CC[C@H](O[C@@H]4O[C@H](CO)[C@@H](O)[C@H](O)[C@H]4O)C(C)(C)[C@@H]3CC[C@]12C` [F2, reference compound]: the “LC50 of doxorubicin treated simultaneously with ginsenoside” value in data set [2] (ginsenoside 10 μg/mL 12 hours, then doxorubicin 0-50 μg/mL 24 hours, FIG. 2B) is given as “about 10 μg/mL”. Further, the “effect on anticancer activity of doxorubicin” value (“effect on anticancer activity” for short) in data set [2] (ginsenoside 10 μg/mL 12 hours) is recorded as “no particular effect on doxorubicin”.

For the molecule `COc1cccc2c1C(=O)c1c(O)c3c(c(O)c1C2=O)C[C@@](O)(C(=O)CO)C[C@@H]3O[C@H]1C[C@H](N)[C@H](O)[C@H](C)O1` [doxorubicin, reference compound], the “cells in which cytochrome-C was released, of the entire cells” value (“cells in which cytochrome-C was released” below) in data set [3] (doxorubicin 5 μg/mL alone (control)) was found to be 7%. For the same molecule, the “level of cytochrome-C release compared to no doxorubicin treatment” value in data set [3] (doxorubicin 5 μg/mL, 4 hours, FIG. 4A) was “increased the level of cytochrome-C release”. The “levels of phosphorylated JNK, cleaved-PARP, and cleaved-caspase-9” value in data set [4] (doxorubicin 5 μg/mL, 24 hours, FIG. 3A) is given as “increased”. Further, the “anticancer effect of doxorubicin with PARP or caspase-9 activity inhibitor” value in data set [5] (Z-LEHD-FMK or 3-AB pretreatment, doxorubicin 5 μg/mL 24 hours) is given as “inhibited”. Moreover, in data set [2] (Homo sapiens, MCF7, 24 h, read-out: LC50 of doxorubicin), the CC50 is around 10 µg/mL (≈ 18.4 µM). For the same molecule, in data set [1], the “change of anticancer activity where mitochondrial fission was induced by Mfn1 or Mfn2 siRNA” value is “further increased” and the “anticancer activity (viability of MCF-7 cells)” value was “significantly high level of anticancer activity”.

For `CC(C)=CCC[C@](C)(O)[C@H]1CC[C@]2(C)[C@@H]1[C@H](O)C[C@@H]1[C@@]3(C)CC[C@H](O)C(C)(C)[C@@H]3CC[C@]12C` [PPD, protopanaxadiol], in data set [6], the “anticancer activity (viability of MCF-7 cells)” value is “relatively excellent anticancer activity”. The “level of cytochrome-C release compared to doxorubicin treatment alone” value in data set [3] (setting [9]) was “increased the level of cytochrome-C release”. Also, in data set [3] (setting [10]), the “cells in which cytochrome-C was released” value is listed as 43%. Further, the mitochondrial damage result in data set [7] was “damage was observed”. In addition, the “formation of cleaved-PARP and cleaved-caspase-9 according to treatment time” value in data set [4] (PPD 10 μg/mL with doxorubicin 5 μg/mL, 0-6 hours, versus doxorubicin alone, FIG. 3B) is recorded as “formed more rapidly”. Besides, in data set [4] (24 hours, FIG. 3A), the “level of cleaved-caspase-9” value is on record as “significantly increased”; the “levels of phosphorylated JNK and cleaved-PARP” value was “not affected”. Further, the “anticancer activity with PARP activity inhibitor, ginsenoside and doxorubicin treated simultaneously” value in data set [5] is given as “slightly recovered”. Further, the “effect on anticancer activity” value in data set [2] (ginsenoside 10 μg/mL 12 hours) was “could enhance the anticancer activity of doxorubicin”. The “anticancer activity of doxorubicin with ginsenoside compared to doxorubicin alone” value in data set [2] (FIG. 2B) is listed as “increased”. Further, in data set [8], the “expression level of Mfn2 (mitochondrial fusion protein)” value is “decreased” and the “expression level of OPA-3 (mitochondrial fission protein)” value is on record as “increase”.

`CC(C)=CCC[C@](C)(O[C@@H]1OC(CO)[C@@H](O)C(O)C1O)C1CC[C@]2(C)C1[C@H](O)CC1[C@@]3(C)CCC(O)C(C)(C)C3CC[C@]12C` (stereo partly shown) [C-K, compound-K]: the “anticancer activity (viability of MCF-7 cells)” value in data set [6] is “relatively excellent anticancer activity”. Also, in data set [3] (setting [9]), the “level of cytochrome-C release compared to doxorubicin treatment alone” value was “increased the level of cytochrome-C release”. Also, in data set [3] (setting [10]), the “cells in which cytochrome-C was released” value came out at 20%. In data set [7], the mitochondrial damage entry was “damage was observed”. Further, in data set [4] (24 hours, FIG. 3A), the “level of cleaved-caspase-9” value is “significantly increased”; the “levels of phosphorylated JNK and cleaved-PARP” value is listed as “not affected”. The “anticancer activity with PARP activity inhibitor, ginsenoside and doxorubicin treated simultaneously” value in data set [5] is on record as “slightly recovered”. The “effect on anticancer activity” value in data set [2] (ginsenoside 10 μg/mL 12 hours) is “could enhance the anticancer activity of doxorubicin”. Moreover, the “anticancer activity of doxorubicin with ginsenoside compared to doxorubicin alone” value in data set [2] (FIG. 2B) was “increased”. Besides, in data set [8], the “expression level of Mfn2 (mitochondrial fusion protein)” value is “decreased” and the “expression level of OPA-3 (mitochondrial fission protein)” value was “increase”.
